{"source": "ChEMBL document CHEMBL1140870", "about": "“Interrogating the mechanism of a tight binding inhibitor of AIR carboxylase” (Bioorg Med Chem, 2009)"}
{"system": "not listed separately", "assay": "Dissociation constant, pKa of the compound", "format": "physicochemical"}
{"smiles": "Nc1c([N+](=O)[O-])ncn1[C@@H]1O[C@H](COP(=O)(O)O)[C@@H](O)[C@H]1O", "pKa": 0.3}
{"target": "T1, Multifunctional protein ADE2 (Gallus gallus, UniProt P38024)", "T1 sequence (P38024 whole entry)": "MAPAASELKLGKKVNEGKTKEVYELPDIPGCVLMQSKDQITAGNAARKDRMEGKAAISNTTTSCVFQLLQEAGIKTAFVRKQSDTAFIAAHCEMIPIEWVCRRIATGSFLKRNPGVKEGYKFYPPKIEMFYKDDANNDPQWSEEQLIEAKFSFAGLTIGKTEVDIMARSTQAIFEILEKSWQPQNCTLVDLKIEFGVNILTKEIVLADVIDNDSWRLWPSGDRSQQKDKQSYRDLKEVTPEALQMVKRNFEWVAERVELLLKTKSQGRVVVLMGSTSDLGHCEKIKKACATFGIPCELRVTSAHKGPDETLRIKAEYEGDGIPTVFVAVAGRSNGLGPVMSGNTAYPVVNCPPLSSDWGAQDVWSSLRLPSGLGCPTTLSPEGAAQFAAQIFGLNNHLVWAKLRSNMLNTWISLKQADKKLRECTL", "assay": "Inhibition of Gallus gallus AIR carboxylase by CAIR decarboxylation assay", "units": {"Ki": "nM", "IC50": "nM"}}
{"smiles": "Nc1c([N+](=O)[O-])cnn1[C@@H]1O[C@H](COP(=O)(O)O)[C@@H](O)[C@H]1O", "Ki": 390}
{"smiles": "O=[N+]([O-])c1ccn([C@@H]2O[C@H](COP(=O)(O)O)[C@@H](O)[C@H]2O)c1", "IC50": "> 100000"}
{"smiles": "Nc1c(C(=O)O)nnn1[C@@H]1O[C@H](COP(=O)(O)O)[C@@H](O)[C@H]1O", "Ki": 2800}
{"smiles": "Nc1c([N+](=O)[O-])ncn1[C@@H]1O[C@H](COP(=O)(O)O)[C@@H](O)[C@H]1O", "Ki": 0.34}
{"smiles": "Nc1c(C=O)ncn1[C@@H]1O[C@H](COP(=O)(O)O)[C@@H](O)[C@H]1O", "Ki": 62000}
{"smiles": "O=[N+]([O-])c1cnn([C@@H]2O[C@H](COP(=O)(O)O)[C@@H](O)[C@H]2O)c1", "Ki": 22000}
{"smiles": "Nc1c(C(=O)O)cnn1[C@@H]1O[C@H](COP(=O)(O)O)[C@@H](O)[C@H]1O", "Ki": 6000}
{"smiles": "O=[N+]([O-])c1cn([C@@H]2O[C@H](COP(=O)(O)O)[C@@H](O)[C@H]2O)cn1", "Ki": 1300}
